Data from patent US20250177371A1, “CFTR MODULATORS FOR THE TREATMENT OF VASCULAR DISEASE” (priority 2022, published 2025).
“Also recorded” adds a separate entry of the source.

What was measured:
COVID-19 patients = details: treatment of COVID-19; cited from earlier work
[1] = tested on: platelets of healthy donors or severe COVID-19 patients; assay: Analysis of Ca2+ transients (Indo-1 AM, FACS); type: cell-based, human; details: 10 µM ivacaftor pretreatment; ADP, TRAP6 or PAF; healthy donors and severe COVID-19; except TRAP6 stimulated healthy platelets
Procedure: Analysis of Ca2+ transients: Platelet rich plasma (PRP) was stained with anti-CD42b, and loaded with Indo-1 AM (Invitrogen, Waltham, MA, USA)) for 30 min at 37° C. together in the presence of either vehicle (DMSO, 10 µM ivacaftor or 5 µM forskolin) under mild agitation. Stained PRP was diluted in Tyrode's Buffer (134 mM NaCl, 12 mM NaHCO3, 2.90 mM KCl, 0.34 mM Na2HPO4, 3 mM MgCl2, 2 mM CaCI2, 20 mM HEPES, 5 mM Glucose, pH 7.4.) complemented with heparin and […] before the fluorescence ratio of Ca2+-bound Indo-1 (405 nm) to Ca2+-unbound Indo-1 (530 nm) of CD42b+ platelets was monitored on a FACSymphony™ A5 (BD Biosciences, Franklin Lakes, NJ, USA) equipped with a ultraviolet (355 nm), violet (405 nm), blue (488 nm), yellow (561 nm), and red (637 nm) solid-state laser. After basal Ca2+ concentrations were monitored for 30 s, platelets were stimulated with either 5 μM PAF (Tocris Bioscience (Bristol, England, GB)), 50 μM ADP (Sigma-Aldrich, St. Louis, MO, USA) or 50 μM TRAP-6 (purchased from Cayman Chemicals (Ann Arbor, MI, USA)) before changes in intracellular Ca2+ concentration ([Ca2+] i) were monitored for additional 2 min. Results are expressed in arbitrary units as areaunder the curve (AUC).

[2] = tested on: platelets in whole blood of COVID-19 patients and healthy donors; assay: Vascular Injury Flow Assay (platelet adhesion on collagen IV); type: cell-based, human
Procedure: Vascular Injury Flow Assay: Citrated blood was stained with anti-CD42b ((GPlb) Allophycocyanin (APC, clone REA 185, Miltenyi Biotec, Bergisch Gladbach, Germany)) and treated with either vehicle (DMSO), 10 μM ivacaftor or 5 µM forskolin for 15 min at 37° C. before the microfluidic flow assay was performed as previously described2. In brief, pretreated whole blood was diluted 1:4 with modified Tyrode's Buffer (134 mM NaCl, 12 mM NaHCO3, 2.90 mM KCl, 0.34 mM Na2HPO4, 3 mM MgCl2, 2.1 mM CaCl2), 20 mM HEPES, 5 mM Glucose, 1 g/l BSA, adjusted to a pH of 7.4.) immediately before perfusion with a flow rate of 20 mL/h for 5 min through collagen IV coated microchannel flow chambers (6 Channel μ-Slide VI 0.4, Ibidi, Martinsried, Germany). After perfusion, cells were fixed with 4% PFA for 30 min and washed thoroughly with PBS. Five randomly selected regions of interest (ROI) for each experimental condition were imaged with an Invitrogen™ EVOS™ fluorescent microscope and quantification of the total CD42b+ covered area was carried out with ImageJ (Version […] by the US National Institutes of Health and the LOCI, University of Wisconsin).

[3] = tested on: platelets isolated from blood of healthy donors; assay: Flow cytometry of surface expression of activation markers CD62p and CD63 on platelets; type: cell-based, human; details: platelets pre-treated 24 h with 10 µM ivacaftor or 5 µM forskolin prior to 50 µM ADP, 50 µM TRAP6 or 5 µM PAF
Procedure: Flow Cytometry: Blood samples were collected and stained as previously described3. In brief, blood was directly stained in dilution buffer (NaCl 137 mM, KCl 2.7 mM, MgCl2 1 mM, 4-(2-hydroxyethyl)-1-piperazineethanesulfonic acid (HEPES) 20 mM, glucose 5.6 mM, bovine serum albumin 1 g/l, pH 7.4.) containing mouse anti-human anti-CD42b (GPlb) Phycoerythrin (PE, clone HIP1), anti-CD62p (P-selectin) Phycoerythrin-Cyanine 7 (PE/Cy7, clone AK4), anti-CD63 (GP53) and Brilliant Violet 421 (clone H5C6), all from BioLegend (San Diego, CA, USA), before cells were fixed with 2 mL of 0.2% PFA in PBS. In order to analyze isolated platelets, total citrate blood was centrifuged at 150 g for 15 min to separate platelet rich plasma (PRP) from blood cells. PRP was collected and centrifuged again at 1000 g for 15 min. Platelets were subsequently resuspended in 10% CPDA buffer in PBS (Sigma-Aldrich (St. Louis, MO, USA)) and incubated for 24 h in the presence of either vehicle (DMSO, Sigma-Aldrich (St. Louis, MO, USA)), 10 µM ivacaftor (Cayman Chemicals, Ann Arbor, MI, USA)) or 5 µM forskolin (Fisher Scientific (Pittsburgh, PA, USA)) before staining was applied as described above. […] All measurements were analyzed with FlowJo (version 8, Tree Star, Inc., Ashland, OR, USA).

[4] = tested on: platelets from COVID-19 patients and healthy donors (hirudin whole blood); assay: Multiple Electrode Aggregometry (Multiplate analyzer); type: cell-based, human; details: 10 µM ivacaftor 15 min, ADP, TRAP6 or PAF, significance only for individual agonist-platelet combinations
Procedure: Multiple Electrode Aggregometry: Whole blood impedance measurement using Multiple Electrode Aggregometry (MEA) was performed on the Multiplate® analyzer by Roche (Basel, Switzerland)). Hirudin whole blood samples were treated with either vehicle (DMSO), 10 µM ivacaftor or 5 μM forskolin for 15 min at 37° C.

SMILES	reduction in thromboembolic events (COVID-19 patients)	agonist-induced [Ca2+]i increase (AUC) [1]	agonist-induced platelet adhesion (CD42b+ total area) ([2]; 10 μM ivacaftor 15 min, ADP, TRAP-6 or PAF, significance for most agonist-platelet combinations)	adhesion of both unstimulated and stimulated platelets ([2]; whole blood of severe COVID-19 patients)	agonist-induced upregulation of CD62p and CD63 (platelet activation) [3]	agonist-induced aggregation of platelets (AUC) [4]	agonist-induced aggregation of platelets (AUC) ([4]; listed as Ivacaftor)
CC(=O)Oc1ccccc1C(=O)O [aspirin]	failed to yield a significant reduction; also recorded: failed to show a significant reduction	–	–	–	–	–	–
COc1ccc(-n2nc(C(N)=O)c3c2C(=O)N(c2ccc(N4CCCCC4=O)cc2)CC3)cc1 [apixaban]	failed to yield a significant reduction	–	–	–	–	–	–
CC(C)(C)c1cc(C(C)(C)C)c(NC(=O)c2c[nH]c3ccccc3c2=O)cc1O [ivacaftor, N-(5-hydroxy-15 2,4-ditert-butyl-phenyl)-4-oxo-1 H-quinoline-3-carboxamide]	–	attenuates; also recorded: significant reduction; also recorded: significantly attenuated	reduces; also recorded: general trend to reduce; also recorded: attenuates	reduced	prevented; also recorded: attenuates; also recorded: normalized	reduces; also recorded: general trend to reduce; also recorded: attenuates	significantly attenuates
